Test results published in US20050148034A1, “Methods for identification of modulators of angiogenesis, compounds discovered thereby, and methods of treatment using the compounds” (priority 2002, published 2005).

Experiments:
[1] = system: human umbilical cord blood vessel rings; assay: Umbilical cord blood vessel ring angiogenesis assay (validation with known modulators); format: cell-based
Protocol: Blood vessels, approximately 1-2 mm in diameter and 1-2 cm in length, were excised from human umbilical cord within 12 hours of birth. Both arterial and venous tissue were harvested and maintained separately. The vessels were placed in DMEM containing 2.5 μg/ml of fungizone and cut into 1-2 mm length fragments using fine dissecting forceps and iridectomy scissors. Vessel fragments were freed of residual clots and soaked in DMEM before use. Dissecting and sectioning of vessels were performed with the aid of a surgical microscope. Similar angiogenic responses were obtained from blood vessels of venular and arterial origin but for each assay, vessel fragments from only one vessel were used. See FIG. 6 for a graphic depiction of the assay setu.
Assays were performed in petri dishes (10 to 25 cm^2) or 6-well culture plates (Costar, Cambridge, Mass.), which were prepared by pre-coating with either 0.1% gelatin (Sigma, St. Louis, Mo.) or MATRIGEL® (BD Biosciences) to form a matrix. Following the coating of the plates, 50 μl of human cord blood plasma in 5 mL of DMEM were added to each dish/well to form a surface film over the matrix. The film was allowed to set at 37° C. for 90 minutes, after which it was removed, leaving a thin film in each dish/well. Vessel ring segments were then positioned at central locations within the plate or dish. Petri dishes were divided into quarters, and vessel ring segments were placed in the center of each of the quadrants. In the case of 6-well culture plates, a vessel ring segment was placed in each of the wells. Vessel ring segments generally adhered to the coated matrix within 12 hours, allowing for the addition of media without risk of detachment due to buoyancy. […]
Test compounds were administered at the beginning of culture, once the adherent stem cells were selected, or once the vessel rings are determined to have adhered to the matrix. Each test compound is evaluated at various concentrations to enable generation of a dose response analysis. […]
Vessel outgrowth was scored as a quantitative comparison to the positive and negative controls, using the following notations: − negative; +/− minimally above negative control; + low level of outgrowth; ++ moderate level of outgrowth; +++ high level of outgrowth; ++++ positive control level of outgrowth. Vessel outgrowth was also scored morphometrically as the maximal distance of vessel sprout growth in microns from the vessel ring, and as the total area of endothelial cell coverage (ECA)/area of vessel ring (VRA).
Following culture for 14-21 days, as described above, angiogenesis was quantified and compared with control cultures. […]

[2] = system: embryonic-like stem cells derived from placenta; assay: Total vessel area/field and branching/bifurcation of cultured placental embryonic-like stem cells (Table 4); format: cell-based, human; parameters: key to Branching/Bifurcation (+/−): +: a branch or bifurcation was observed; −: no branch or bifurcation was observed; conditions: for branching and/or bifurcation exhibited by the cells / total vessel area/field covered by the cells: summary of Table 4
Protocol: In another experiment, the results of which are summarized in Table 4, embryonic-like stem cells derived from placenta were cultured, using the culture conditions described above, and in the presence of EGCF, DMSO, Thalomid™, Actimid™ or Revimid™.
A “+” means that a branch or bifurcation was observed and a “−” means that no branch or bifurcation was observed. […] See also FIGS. 3A, 3B

[3] = system: embryonic-like stem cells derived from placenta; assay: Marker expression of cultured embryonic-like stem cells (staining score, Table 2); format: cell-based, human; parameters: key to SMC-specific Myosin HC / GFAP / CD34+ / CD45+: −: no staining; +/−: <20% staining; +: 20-50% staining; ++: 50-75% staining; +++: >75% staining; conditions: for CD34+ / CD45+ / GFAP / Nestin / SMC-specific Myosin HC: placental conditioned media, fourteen days of culture; for numbers of cells expressing CD34, CD45 and smooth muscle cell (SMC)-specific myosin heavy chain / numbers of cells expressing nestin and glial fibrillary acidic protein (GFAP): summary of Table 2
Protocol: The following experiments evaluated the effects of Thalomid™, Actimid™ and Revimid™ on the morphological differentiation of embryonic-like stem cells derived from placenta. The morphological differentiation of cultured embryonic-like stem cells was evaluated after fourteen days of culture in the presence of placental conditioned medium and with DMSO (control), EGCF, Thalomid™, Actimid™ or Revimid™.
Embryonic-like stem cells were isolated from placenta as described above in Section 5.4. The embryonic-like stem cells were cultured using the culture conditions described above.
(§1) The cells were scored for the expression of CD34 (a marker of early hematopoietic progenitor cells; also an endothelial cell marker), CD45 (a marker of all hematopoietic cells except erythrocytes), CD105 (a marker of proliferating endothelial cells), smooth muscle cell (SMC)-specific myosin heavy chain, nestin ([…]), and glial fibrillary acidic protein (GFAP). Ratios of CD34 cells/TNC (Total Number of Cells), CD45 cells/TNC and CD105 cells/TNC were also determined.
In Table 2, the scoring was as follows: • −: no staining; +/−: <20% staining+: 20-50% staining; ++: 50-75% staining; +++: >75% staining.

[4] = system: embryonic-like stem cells derived from placenta; assay: Immunostaining for CD34, CD45 and CD105 in cultured placental stem cells (ratios to TNC, Table 3); format: cell-based, human; conditions: for CD34/TNC / CD45/TNC / CD105/TNC: placental conditioned media, 1 μg/ml, 14 days in culture; for numbers of cells expressing CD34, CD45 and CD 105: summary of Table 3
Protocol: as §1
In another experiment, the results of which are summarized in Table 3, embryonic-like stem cells derived from placenta were cultured, using the conditions described in the umbilical vessel ring assay described above, in the presence of placenta-conditioned medium with DMSO (negative control), Thalomid™, Actimid™ or Revimid™. After 14 days in culture, the cells were then immunostained for expression of CD34+, CD45+ and CD 105+.

rat aortic rings = assay: Rat aortic angiogenesis assay; format: cell-based, Sprague Dawley rats; conditions: for mean microvessel growth (% of control): without microsomes
Protocol: Twelve well tissue culture grade plates were covered with 250 μl of Matrigel and allowed to gel for 30-45 min at 370 C, 5% Co2. Thoracic aortas were excised from eight to ten week old male Sprague Dawley rats and the fibroadipose tissue was removed. The aortas were sectioned into 1 mm long sections, rinsed eight times with EGM-2 (Clonetics Corp), placed on the Matrigel coated wells, covered with additional 250 μl Matrigel, and allowed to gel for 30-45 min at 370 C. The rings were cultured for 24 hours in 2 ml of EGM-2. After 24 hours, recombinant murine endostatin was reconstituted in EBM and added as a single treatment on day 1. Thalidomide was added at different concentrations (1 μg/ml, 5 μg/ml, 10 μg/ml, 50 μg/ml and 100 μg/ml) in the presence or absence of rabbit microsomes as noted in the Table 5. Aortic rings were photographed on days.

[5] = system: human umbilical cord vessel rings; assay: Human angiogenesis assay (umbilical artery vessel rings in Matrigel); format: cell-based; conditions: for Microvessel Growth (% Inhibition): vs 0.1% DMSO, three weeks, average of two rings
From the text: Fresh human umbilical cords were collected by trained medical personnel under fill donor informed consent from local hospitals. The cords were transported and treated within three hours. Umbilical cords and vessel lumens were rinsed with chilled basal nutrient medium. The artery was removed from the cord using mechanical means, forceps and small surgical scissors in an aseptic field. The vessel was cleaned of connective tissue and vessel rings were cut cross-wise in a length of 1 mm. The rings were placed into EGM-2 medium (Clonetics Corp.) in a 50 ml conical bottom tube and stored at 4° C. Six-well tissue culture plates were covered with […] of Matrigel and allowed to gel for 30-45 min at 37° C., under 5% CO2. The vessel rings were rinsed in EGM-2 medium and placed on the Matrigel-coated wells, covered with additional 250 μl Matrigel, and allowed to gel for 30-45 min at 37° C. (see FIG. 6). The vessels were cultured for 24 hours in 4 ml of EGM-2 to allow the tissue to adapt to its new environment. After 24 hours incubation, the rings were treated either with 0.1% DMSO as control, or different concentrations of compounds (thalidomide or CC4047). Culture medium was changed twice per week for total of three weeks.
The effects of compounds on cultured vessel rings were compared with the effect of DMSO on vessel rings. The results were analyzed using Image-Pro® Plus software (MediaCybernetics, Inc. Carlsbad, Calif.).
These experiments were done in duplicates and the results are the average of two rings in same experiment. A different concentration of Fumagillin is used as positive control in this experiment.

low molecular weight heparin
inhibition of angiogenesis ([1]; 100 μg/ml): small but significant inhibition of angiogenesis

Nc1cccc2c1CN(C1CCC(=O)NC1=O)C2=O (stereo not shown) [Revimid, 3-(4-amino-1-oxo-1,3-dihydro-isoindol-2-yl)-piperidine-2,6-dione]
Branching/Bifurcation (+/−) ([2]; 1 μg/ml): − | Total Vessel Area/Field (% Coverage) ([2]; 1 μg/ml): 13.5 +/− 7.7 % Coverage | Branching/Bifurcation (+/−) ([2]; 10 μg/ml): − | Total Vessel Area/Field (% Coverage) ([2]; 10 μg/ml): 12.1 +/− 7.4 % Coverage | branching and/or bifurcation exhibited by the cells [2]: decreases the branching and/or bifurcation exhibited by the cells | total vessel area/field covered by the cells [2]: decrease in the total vessel area/field covered by the cells | CD34+ ([3]; 1 μg/mL): − | CD45+ ([3]; 1 μg/mL): − | GFAP ([3]; 1 μg/mL): + (20-50% staining) | Nestin ([3]; 1 μg/mL): + (20-50% staining) | SMC-specific Myosin HC ([3]; 1 μg/mL): − | CD34+ ([3]; 10 μg/mL): − | CD45+ ([3]; 10 μg/mL): − | GFAP ([3]; 10 μg/mL): +++ (>75% staining) | Nestin ([3]; 10 μg/mL): ++ (50-75% staining) | SMC-specific Myosin HC ([3]; 10 μg/mL): − | numbers of cells expressing CD34, CD45 and smooth muscle cell (SMC)-specific myosin heavy chain [3]: decreased | numbers of cells expressing nestin and glial fibrillary acidic protein (GFAP) [3]: increased | CD34/TNC [4]: .22 | CD45/TNC [4]: 1.71 | CD105/TNC [4]: 17.3 | numbers of cells expressing CD34, CD45 and CD 105 [4]: decrease

heparin
inhibition of angiogenesis ([1]; 100 μg/ml): small but significant inhibition of angiogenesis

Nc1cccc2c1C(=O)N(C1CCC(=O)NC1=O)C2=O (stereo not shown) [Actimid, 4-(Amino)-2-(2,6-dioxo(3-piperidyl))-isoindoline-1,3-dione]
mean microvessel growth (% of control) (rat aortic rings; 10 μg/ml): 14.2 % of control | mean microvessel growth (% of control) (rat aortic rings; 100 μg/ml): 0.00 % of control | need of rabbit microsomes for inhibition of vessel formation (rat aortic rings; summary of Table 5): did not require microsomes for inhibition of vessel formation | Microvessel Growth (% Inhibition) ([5]; 0..1 μM): 50.1 % Inhibition | Microvessel Growth (% Inhibition) ([5]; 1 μM): 85 % Inhibition | Microvessel Growth (% Inhibition) ([5]; 10 μM): 100 % Inhibition | formation of microvessel outgrowth ([5]; compared with DMSO treated samples): inhibited the formation of microvessel outgrowth in a dose dependent manner | Branching/Bifurcation (+/−) ([2]; 1 μg/ml): − | Total Vessel Area/Field (% Coverage) ([2]; 1 μg/ml): 11.3 +/− 2.8 % Coverage | Branching/Bifurcation (+/−) ([2]; 10 μg/ml): − | Total Vessel Area/Field (% Coverage) ([2]; 10 μg/ml): 6.7 +/− 4.1 % Coverage | branching and/or bifurcation exhibited by the cells [2]: decreases the branching and/or bifurcation exhibited by the cells | total vessel area/field covered by the cells [2]: decrease in the total vessel area/field covered by the cells | CD34+ ([3]; 1 μg/mL): − | CD45+ ([3]; 1 μg/mL): − | GFAP ([3]; 1 μg/mL): − | Nestin ([3]; 1 μg/mL): ++ (50-75% staining) | SMC-specific Myosin HC ([3]; 1 μg/mL): − | CD34+ ([3]; 10 μg/mL): − | CD45+ ([3]; 10 μg/mL): − | GFAP ([3]; 10 μg/mL): + (20-50% staining) | Nestin ([3]; 10 μg/mL): +++ (>75% staining) | SMC-specific Myosin HC ([3]; 10 μg/mL): − | numbers of cells expressing CD34, CD45 and smooth muscle cell (SMC)-specific myosin heavy chain [3]: decreased | numbers of cells expressing nestin and glial fibrillary acidic protein (GFAP) [3]: increased | CD34/TNC [4]: 0.04 | CD45/TNC [4]: 0.94 | CD105/TNC [4]: 26.3 | numbers of cells expressing CD34, CD45 and CD 105 [4]: decrease

Cc1ccc(C(=O)Nc2ccc(S(=O)(=O)O)c3cc(S(=O)(=O)O)cc(S(=O)(=O)O)c23)cc1NC(=O)c1cccc(NC(=O)Nc2cccc(C(=O)Nc3cc(C(=O)Nc4ccc(S(=O)(=O)O)c5cc(S(=O)(=O)O)cc(S(=O)(=O)O)c45)ccc3C)c2)c1 [suramin]
inhibition of angiogenesis ([1]; 10 μg/ml): the inhibitory activity of this compound is lost | inhibition of angiogenesis ([1]; 100 μg/ml): virtually totally inhibited angiogenesis
